# Measured values published in patent US20150231117A1 (Array BioPharma Inc., priority 2012, published 2015).
# How the values were obtained:
# NCI H929 MM cells = experiment: 3 day Cell Titer Blue viability assay with added AAG, NCI H929; assay type: cell-based, human
# Source text: (§1) Kit: Cell Titer-Blue Cell Viability Assay, Promega Corp. (Madison Wis.) Catalog No. G8081
# Dose limiting toxicity = details: in vivo
# Source text: As such, prophylactic granulocyte colony-stimulating factory (“G-CSF”) may be administered.
# HSA = target: T1, HSA (Homo sapiens, UniProt P02768); experiment: TRANSIL binding assay, HSA; details: PBS pH 7.4, 2 μM drug
# T1 construct: purchased ADMEcell (Alameda, Calif.) TBP-0210-0096 / TBP-0210-1196
# Method: (§2) TRANSIL® Binding Methodology (www.admecell.com)—Assay Buffers: phosphate buffered saline (“PBS”), pH 7.4 (Gibco 10010) and dimethylsulfoxide (“DMSO”). Plates: Ordered from ADMEcell (Alameda, Calif.). AGP—Full Plate: TBP-0211-0096; AGP—Strip Plate: TBP-0211-1196; HSA—Full Plate: TBP-0210-0096; HSA—Strip Plate: TBP-0210-1196. Stop Solution: 100% Acetonitrile spiked with Internal Standard (0.4 μM final concentration).
# (§3) Drug Dilution: Dilution of drug samples to make a final 2 μM drug concentration (1% DMSO) (used 360 μL of final diluted drug per protein testing, i.e., 720 μL to run both AAG and HSA). Brought drug up to a 10 mM stock solution in DMSO. Diluted 10 mM stock to a 200 μM (0.2 mM) stock solution (added 4 μL of 10 mM stock solution into 196 μL, of DMSO). Diluted 200 μM stock to a 20 μM stock solution (added 100 μL of 200 μM DMSO stock solution into 900 μL of PBS Buffer, pH 7.4).
# (§4) Thawed the assay kit either at room temperature (approximately 3 hours) or in the refrigerator at 4° C. overnight. The plates were put in the incubator, CO2 (5%) for 30 minutes prior to addition of compound. A pre-dilution of the compounds (10-fold assay concentration) were prepared, see Drug Dilution step above. […] Test article solution (45 μL) was added to the tubes/well of the ready-to-use kit and incubated for 2 minutes. […] The concentration of the supernatant was quantified with LC/MS (API4000). […]
# RPMI-8226 MM cells = experiment: Cell Titer Blue viability assay with added AAG, RPMI 8226; assay type: cell-based, human
# Source text: as §1
# % Fu to human plasma = assay type: in vitro ADME; details: human plasma (ready-to-use bead-based binding assay kit)
# Method: Thawed the assay kit either at room temperature (approximately 3 hours) or in the refrigerator at 4° C. overnight. The plates were put in the incubator, CO2 (5%) for 30 minutes prior to addition of compound. A pre-dilution of the compounds (10-fold assay concentration) were prepared, see Drug Dilution step above. The drug dilutions were warmed in a 37° C. water bath prior to dosing compound into plate. Caution: Check carefully the pre-dilution for any precipitation and ensure a sufficient buffer solubility and stability of your test article. Test article solution (45 μL) was added to the tubes/well of the ready-to-use kit and incubated for 2 minutes. Mixed ten times by re-suspending the beads. Re-suspended approximately half of the total volume of the vial (total volume is 450 μL). […] The vials were spun with a swing-out centrifuge for 10 minutes at 750 g. 100 μL was carefully transferred to 96-well plate. Acetonitrile (50 μL) was added with labetalol as the internal standard (0.4 μM final concentration). The plates were sealed for analysis. The concentration of the supernatant was quantified with LC/MS (API4000). See also, Brown, Karin D. supra. The result is in Table 1. pKa value was estimated using ACD/pKa DB software. Calculations: [formula]
# [1] = test system: Patients with Relapsed or Refractory Multiple Myeloma; experiment: Clinical study in patients with relapsed or refractory multiple myeloma, analysed by baseline [AAG]; assay type: in vivo, human
# Method: The R&D Systems, Inc. (Minneapolis, Minn.) Quantikine® Human α1-Acid Glycoprotein Immunoassay (Catalog No. DAGPOO) is a 4.5 hour solid-phase ELISA designed to measure human AAG in cell culture supemates, serum, plasma, and urine. This assay employed the quantitative sandwich enzyme immunoassay technique. […] Standards and samples are pipetted into the wells, and any AAG present is bound by the immobilized antibody. After washing away any unbound substances, an enzyme-linked polyclonal antibody specific for AAG is added to the wells. Following a wash to remove any unbound antibody-enzyme reagent, a substrate solution is added to the wells, and color develops in proportion to the amount of AAG bound in the initial step. The color development is stopped, and the intensity of the color is measured. The assay was performed as described in the package insert, except where described otherwise below.
# KSP = target: T2, KSP (Homo sapiens, UniProt P52732); experiment: Estimated in vitro unbound IC50
# T2 sequence (P52732 1-1056): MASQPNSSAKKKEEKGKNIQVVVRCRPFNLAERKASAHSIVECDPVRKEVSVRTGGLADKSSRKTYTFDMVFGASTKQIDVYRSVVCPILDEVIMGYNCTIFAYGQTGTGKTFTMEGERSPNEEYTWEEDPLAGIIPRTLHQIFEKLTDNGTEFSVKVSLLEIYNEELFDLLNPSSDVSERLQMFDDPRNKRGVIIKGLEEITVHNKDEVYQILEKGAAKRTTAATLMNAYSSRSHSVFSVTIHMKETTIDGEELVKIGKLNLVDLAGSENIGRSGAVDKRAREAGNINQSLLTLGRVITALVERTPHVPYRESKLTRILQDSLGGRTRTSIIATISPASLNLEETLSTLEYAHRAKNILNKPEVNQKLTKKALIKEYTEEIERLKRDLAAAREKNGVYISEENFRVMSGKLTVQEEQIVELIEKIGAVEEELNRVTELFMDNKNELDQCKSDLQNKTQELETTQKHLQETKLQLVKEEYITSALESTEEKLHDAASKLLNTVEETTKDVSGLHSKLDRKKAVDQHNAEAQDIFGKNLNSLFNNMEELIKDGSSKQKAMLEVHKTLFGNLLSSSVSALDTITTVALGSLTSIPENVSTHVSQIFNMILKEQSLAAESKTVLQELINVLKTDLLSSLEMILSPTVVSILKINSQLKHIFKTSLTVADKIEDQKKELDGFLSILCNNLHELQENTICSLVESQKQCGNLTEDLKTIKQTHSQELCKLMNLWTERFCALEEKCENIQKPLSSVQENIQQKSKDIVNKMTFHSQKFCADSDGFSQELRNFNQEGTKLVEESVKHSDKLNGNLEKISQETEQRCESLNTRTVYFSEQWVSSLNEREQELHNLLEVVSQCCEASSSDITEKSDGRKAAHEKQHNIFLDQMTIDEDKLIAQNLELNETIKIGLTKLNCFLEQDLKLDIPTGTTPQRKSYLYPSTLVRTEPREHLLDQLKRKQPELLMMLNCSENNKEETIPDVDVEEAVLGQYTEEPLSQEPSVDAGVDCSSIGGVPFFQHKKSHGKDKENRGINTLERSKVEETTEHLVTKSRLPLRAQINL
# Method: Model optimization was accomplished using the QRPEM engine of Phoenix 6.3 (Pharsight Corporation, St. Louis, Mo.). Model selection was based on AIC comparisons and diagnostic plots. Simulations were for a typical patient receiving Phase 2 dose of 1.5 mg/m^2 on day 1 and day 2 with varying [AAG].
# AAG = target: T3, AAG; experiment: TRANSIL binding assay, AAG; set-up: species or system human
# T3 construct: other: TRANSIL, PBS pH 7.4, 2 μM drug; other: not for other serum proteins such as albumin; fused on or other part: AGP immobilised on TRANSIL silica beads (ready-to-use kit)
# Method: as §2, §3, §4
# [2] = Phase 2 + dex (with dexamethasone), All Patients, n=18
# [3] = Phase 2 + dex (with dexamethasone), [AAG] <1.1 g/L, n=12
# [4] = Phase 2 Single Agent, All Patients, n=27
# [5] = Phase 2 Single Agent, [AAG] <1.1 g/L, n=21
# T1 sequence (P02768 25-609): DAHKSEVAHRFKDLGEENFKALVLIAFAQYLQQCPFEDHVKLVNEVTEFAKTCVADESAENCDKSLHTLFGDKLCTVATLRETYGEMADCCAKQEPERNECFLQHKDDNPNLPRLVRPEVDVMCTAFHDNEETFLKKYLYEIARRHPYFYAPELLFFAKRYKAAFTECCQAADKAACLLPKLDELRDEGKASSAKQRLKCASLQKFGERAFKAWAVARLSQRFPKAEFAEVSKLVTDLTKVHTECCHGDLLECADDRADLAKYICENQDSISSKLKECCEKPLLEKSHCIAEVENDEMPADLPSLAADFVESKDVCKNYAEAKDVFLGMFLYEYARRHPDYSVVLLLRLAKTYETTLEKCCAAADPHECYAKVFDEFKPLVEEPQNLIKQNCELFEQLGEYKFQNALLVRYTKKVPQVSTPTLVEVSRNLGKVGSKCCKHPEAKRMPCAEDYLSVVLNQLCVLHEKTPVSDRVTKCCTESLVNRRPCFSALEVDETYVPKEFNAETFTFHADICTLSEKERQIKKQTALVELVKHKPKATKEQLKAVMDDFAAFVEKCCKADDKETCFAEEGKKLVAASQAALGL
smiles,measurement,setting,value
"CON(C)C(=O)N1N=C(c2cc(F)ccc2F)S[C@@]1(CCCN)c1ccccc1.Cl [ARRY-520, (S)-2-(3-Aminopropyl)-5-(2,5-difluorophenyl)-N-methoxy-N-methyl-2-phenyl-1,3,4-thiadiazole-3(2H)-carboxamide]",decrease of cellular sensitivity to ARRY-520 as [AAG] increases,"NCI H929 MM cells; AAG 0.5-4 mg/mL final concentration, FIG. 1",greater than 30 fold
same,effect of increasing AAG levels on cell sensitivity,NCI H929 MM cells; NCI H929,decrease cell sensitivity
same,major dose limiting toxicity (DLT),Dose limiting toxicity,neutropenia
same,Kd,HSA,147 µM
same,effect of increasing AAG levels on cell sensitivity,RPMI-8226 MM cells,decrease cell sensitivity
same,fraction unbound at 2 min,% Fu to human plasma,0.07
same,Median Time on Study (months),"[1]; Phase 1, All Patients, n=27",3.9 months
same,"≧MR, number of patients","[1]; Phase 1, All Patients, n=27",4
same,"≧MR, rate","[1]; Phase 1, All Patients, n=27",15%
same,"≧PR, number of patients","[1]; Phase 1, All Patients, n=27",3
same,"≧PR, rate","[1]; Phase 1, All Patients, n=27",11%
same,Median Time on Study (months),"[1]; Phase 1, [AAG] <1.1 g/L, n=20",5.2 months
same,"≧MR, number of patients","[1]; Phase 1, [AAG] <1.1 g/L, n=20",4
same,"≧MR, rate","[1]; Phase 1, [AAG] <1.1 g/L, n=20",20%
same,"≧PR, number of patients","[1]; Phase 1, [AAG] <1.1 g/L, n=20",3
same,"≧PR, rate","[1]; Phase 1, [AAG] <1.1 g/L, n=20",15%
same,Median Time on Study (months),[1]; [2],3.9 months
same,"≧MR, number of patients",[1]; [2],6
same,"≧MR, rate",[1]; [2],33%
same,"≧PR, number of patients",[1]; [2],4
same,"≧PR, rate",[1]; [2],22%
same,Median Time on Study (months),[1]; [3],6.2 months
same,"≧MR, number of patients",[1]; [3],6
same,"≧MR, rate",[1]; [3],50%
same,"≧PR, number of patients",[1]; [3],4
same,"≧PR, rate",[1]; [3],33%
same,Median Time on Study (months),[1]; [4],2.8 months
same,"≧MR, number of patients",[1]; [4],6
same,"≧MR, rate",[1]; [4],22%
same,"≧PR, number of patients",[1]; [4],5
same,"≧PR, rate",[1]; [4],19%
same,Median Time on Study (months),[1]; [5],3.4 months
same,"≧MR, number of patients",[1]; [5],6
same,"≧MR, rate",[1]; [5],29%
same,"≧PR, number of patients",[1]; [5],5
same,"≧PR, rate",[1]; [5],24%
same,"time to coming off study, most patients with high baseline [AAG]","[1]; baseline [AAG] greater than 1.1 g/L, FIG. 5",less than 5 months
same,increase of risk for discontinuing the study,"[1]; with each 1.0 g/L increase in [AAG], p<0.01",2.5 fold
same,IC50,KSP,0.000438 µM
same,Kd,"AAG; TRANSIL, PBS pH 7.4, 2 μM drug",5 µM
same,affinity for AAG in in vitro assays,AAG; not for other serum proteins such as albumin,low micromolar affinity
